Patent US12064508B2, “Compositions and methods for nasal administration of drugs to brain and for systemic effect” (priority 2017, dated 2024)

Test system: nasal cavity
Test: Local safety: histopathology of the nasal cavity
Details: intranasal 15 μl/rat twice a day for one week
Description: The effect of phospholipid magnesome on the nasal cavity was evaluated in rats.
The animals received the treatments twice a day for one week. […] Sections of the nasal cavity were cut serially at 7 μm thickness and stained with Hematoxylin & Eosin. […] Local toxicity was assessed by evaluating the histopathological alterations in different regions of the nasal cavity (cartilage and turbinate bone, lamina propria and submucosa, mucosal epithelium and lumen).

## CCCCCCCCCCCCOS(=O)(=O)[O-].[Na+] [SLS, Sodium lauryl sulfate]
  histopathological findings in the nasal cavity: minimal proteinaceous material in the lumen and focal aggregations of neutrophils
